“Also recorded” adds a separate entry of the source.
Experiments:
Format in all cases: cell-based, Hepatitis B virus (HBV)
HBV cccDNA = experiment: HBV-infected HepG2-NTCP cells directly transfected with gRNA/Cas9 RNPs, HBV cccDNA qPCR; conditions: direct transfection for 3 days
Text: To test whether the synthetic gRNA/Cas9 can reduce newly formed HBV cccDNA in HepG2-NTCP cells, the cells with HBV particle-containing supernatants from HepDE19 cells (supernatants harvested 6 days after culture in Tet-free media) were infected. The HepG2-NTCP cells were infected with HBV particles for 6 days and then transfected with gRNA5, gRNA9, gRNA5 plus gRNA9 (in combination), or gRNAc RNPs for 3 days, followed by measuring HBV cccDNA. In another experiment, the infected HepG2-NTCP cells were incubated for 3 days with exosomes packaged with gRNA5, gRNA9, gRNA5 plus gRNA9 (in combination), or gRNAc RNPs, followed by measuring HBV cccDNA.
In another experiment, 1×10^6 HepG2-NTCP cells were infected using supernatants containing HBV particles from HepDE19 cells that were maintained for 6 days. The HBV-infected HepG2-NTCP cells were transfected with gRNA5, gRNA9, gRNA5 plus gRNA9, or gRNAc RNPs as described above. The cells were maintained for 3 days in a complete culture medium and then harvested for HBV cccDNA detection by qPCR.
Total and protein-free HBV DNAs were extracted from whole cell lysate using the Hirt DNA method according to a previously published protocol. […] HBV total DNA and cccDNA were analyzed by real-time PCR using a TaqMan PCR assay. […] The DNA levels were determined by the […] method and values were normalized to the control group.

HBV DNA [1] = experiment: Mismatch sensitive T7 endonuclease 1 (T7E1) assay in HepDE19 cells; conditions: HepDE19 cells transfected for 3 days, T7E1 digestion of PCR products
Text: DNA cleavage by CRISPR/Cas9 results in double-strand breaks (DSBs), which are repaired primarily by the non-homologous end-joining (NHEJ) pathway, resulting in indel mutations and transcriptionally active episomal variants. Thus, detecting DNA cleavage and indel mutations following CRISPR/Cas9-mediated DNA damage and repair is important for confirming its gene-editing effects. To validate the capability of the synthetic gRNA/Cas9 RNPs to introduce indel mutation and cleavage in HBV DNA in HepDE19 cells, a mismatch sensitive T7 endonuclease (T7E1) assay-was performed, following transfection of HepDE19 cells with gRNA5, gRNA9, gRNA5+gRNA9, or gRNAc RNPs. This assay allows for the detection of specific cleavage sites or indel mutations in the target gene (HBV DNA) in the treated cells. The indel mutagenesis was determined based on the DNA fragments detected after the gRNA/Cas9-mediated cleavage of the HBV DNA following T7E1 digestion of the specific PCR products.
The HBV DNA sequences surrounding gRNA-binding sites were amplified by PCR. […]
DNA cleavage by CRISPR/Cas9 results in double-strand breaks (DSBs), which are primarily repaired by the non-homologous end joining (NHEJ) repair pathway, resulting in gene mutations. […] The mutagenesis was determined based on the DNA fragments detected after the gRNA/Cas9-mediated cleavage of the HBV DNA following T7E1 digestion.

HBV DNA [2] = experiment: Sanger sequencing of HBV DNA fragments from treated HepDE19 cells; conditions: compared with gRNAc
Method: Following treatment with gRNA5/Cas9+gRNA9/Cas9, or gRNAc/Cas9 RNPs, genomic DNA was isolated from HepDE19 cells using the PureLink Genomic DNA Mini Kit (Cat #K182001, Invitrogen). DNA fragments containing the gRNA target sequences were amplified by qPCR using primers flanking the cleavage sites. The PCR products were confirmed using 1% agarose gel electrophoresis and purified using a QIAquick gel extraction kit (Cat #28704, Qiagen). Sequencing of the extracted DNA fragments was performed by GENEWIZ (Chelmsford, MA) using Sanger's sequencing method. The PCR primers used for the detection of gRNA5 and gRNA9 flanking regions are described above. The sequencing readouts were aligned with the gRNAc, which was compared to the HBV sequence in the database (ayw strain, Genbank accession number: NC_003977.2). The Chromas's software (Technelysium DNA sequencing software) was used to read the nucleotide peaks, and the alignment of two or more sequences was performed using the BLAST tool from NCBI-BLAST to compare the nucleotide sequences.
Following a successful CRISPR/Cas9 cleavage, DNA damage repair pathways are initiated, and nucleotide mutagenesis occurs in the targeted genome, introducing substitution mutations. […]

## GGTCTCCATGCGACGTGCAGNGG [gRNA9]
HBV cccDNA
  HBV cccDNA levels: significantly reduced
HBV DNA [1]
  cleaved products / DSBs in HBV DNA after T7E1 treatment: cleaved products were observed; also recorded: DSBs were introduced
HBV DNA [2]
  mutations at gRNA-targeted sites of HBV DNA (Sanger sequencing): specific DNA indel mutations

## GTTATCGCTGGATGTGTCTGNGG (guide GUUAUCGCUGGAUGUGUCUGNGG; complexed with Cas9 protein, chemistry not fully specified) [gRNA5, tested as synthetic gRNA/Cas9 RNP]
HBV cccDNA
  HBV cccDNA levels: significantly reduced
HBV DNA [1]
  cleaved products / DSBs in HBV DNA after T7E1 treatment: cleaved products were observed; also recorded: DSBs were introduced
HBV DNA [2]
  mutations at gRNA-targeted sites of HBV DNA (Sanger sequencing): specific DNA indel mutations
